Data on 19 compounds can be found in patent publication US10202403B2, “Macrocyclic benzofuran compounds for the treatment of hepatitis C” (BRISTOL-MYERS SQUIBB COMPANY, priority 2014, dated 2019).

Broadly, the EC50 is the concentration giving half of the maximal effect.

Series [1] has as its system genotype 1b (Con-1) HCV replicon. The experiment in a line: HCV replicon luciferase assay. Type of series: cell-based, HCV genotype 1b (Con-1) in human Huh-7 cells. Particulars: Hepatitis C virus, 72 h; genotype 1b replicon, Huh-7, Renilla luciferase, 3 days incubation. The protocol:
Cell Lines. The cell lines used to evaluate compounds consist of a human hepatocyte derived cell line (Huh-7) that constitutively expresses a genotype 1b (Con-1) HCV replicon or a genotype 1b (Con-1) HCV replicon with an asparagine replacing the cysteine at amino acid 316, or a genotype 2a (JFH-1) replicon, containing a Renilla luciferase reporter gene. These cells were maintained in Dulbecco's modified Eagle medium (DMEM) containing 10% FBS, 100 U/mL penicillin/streptomycin and 1.0 mg/mL G418.
HCV replicon luciferase assay.To evaluate compound efficacy, titrated compounds were transferred to sterile 384-well tissue culture treated plates, and the plates were seeded with HCV replicon cells (50 μL at a density of 2.4×10^3 cells/well) in DMEM containing 4% FBS (final DMSO concentration at 0.5%). After 3 days incubation at 37° C., cells were analyzed for Renilla Luciferase activity using the EnduRen substrate (Promega cat #E6485) according to the manufacturer's directions. Briefly, the EnduRen substrate was diluted in DMEM and then added to the plates to a final concentration of 7.5 μM. The plates were incubated for at least 1 hour at 37° C., then read on a Viewlux Imager (PerkinElmer) using a luminescence program. The 50% effective concentration (EC50) was calculated using the four-parameter logistic formula noted above.

The test system of another series is HCV. Particulars: cited from earlier work.

In series [1], `C=C1COc2ccc3oc(-c4ccc(F)cc4)c(C(=O)NC)c3c2CC(=C)COc2ccc3oc(-c4ccc(F)cc4)c(C(=O)NC)c3c2C1` [Compound 2002] registered an EC50 of 3.65 µM. On to `C=CC1Cc2c(ccc3oc(-c4ccc(F)cc4)c(C(=O)NC)c23)O1` (centres unmarked) [Compound 1002], for which, in series [1], the EC50 came to 0.672 µM. On the same count and under the same terms, to `CNC(=O)c1c(-c2ccc(F)cc2)oc2ccc3c(c12)CC=CCO3` [Compound 1001] belongs 2.08 µM; to `CNC(=O)c1c(-c2ccc(F)cc2)oc2ccc3c(c12)CCCCCCCCCCCO3` [Compound 1012], 0.53 µM; to `CNC(=O)c1c(-c2ccc(F)cc2)oc2ccc3c(c12)CCCCCCCCCCO3` [Compound 1011], 1.08 µM. Still for that read-out and setting: to `CNC(=O)c1c(-c2ccc(F)cc2)oc2ccc3c(c12)CCCCCCO3` [Compound 1007] belongs 1.29 µM.

`CNC(=O)c1c(-c2ccc(F)cc2)oc2ccc3c(c12)CCN(S(=O)(=O)c1ccc(C)cc1)CCO3` [Compound 1014]: the EC50 in series [1] was above 10 µM. `CNC(=O)c1c(-c2ccc(F)cc2)oc2ccc3c(c12)CCCCCCCCO3` [Compound 1009] registered an EC50 in series [1] of 2.08 µM.

In series [1], `CNC(=O)c1c(-c2ccc(F)cc2)oc2ccc3c(c12)CCc1cccc(c1)CCO3` [Compound 1005] came in with an EC50 above 10 µM. Same read-out and setting: to `CNC(=O)c1c(-c2ccc(F)cc2)oc2ccc3c(c12)CC1(CC1)COc1ccc2oc(-c4ccc(F)cc4)c(C(=O)NC)c2c1CC1(CC1)CO3` [Compound 2005] belongs 0.931 µM; to `CNC(=O)c1c(-c2ccc(F)cc2)oc2ccc3c(c12)CCCCCCCO3` [Compound 1008], 1.82 µM; to `CNC(=O)c1c(-c2ccc(F)cc2)oc2ccc3c(c12)Cc1cccc2cccc(c12)CO3` [Compound 1004], above 10 µM. The same measure, in the same setting: to `CNC(=O)c1c(-c2ccc(F)cc2)oc2ccc3c(c12)CCCCCCCCCO3` [Compound 1010] belongs 1.63 µM; to `CNC(=O)c1c(-c2ccc(F)cc2)oc2ccc3c(c12)Cc1cccc(c1)COc1ccc2oc(-c4ccc(F)cc4)c(C(=O)NC)c2c1Cc1cccc(c1)CO3` [Compound 2004], above 10 µM.

With `CNC(=O)c1c(-c2ccc(F)cc2)oc2ccc3c(c12)Cc1ccccc1-c1ccccc1CO3` [Compound 1003], the EC50 in series [1] worked out at 2.84 µM. On the same count and under the same terms, to `CNC(=O)c1c(-c2ccc(F)cc2)oc2ccc3c(c12)Cc1cccc(n1)COc1ccc2oc(-c4ccc(F)cc4)c(C(=O)NC)c2c1Cc1cccc(n1)CO3` [Compound 2001] belongs 6.67 µM. On to `CNC(=O)c1c(-c2ccc(F)cc2)oc2cc(N(CCO)S(C)(=O)=O)c(C3CC3)cc12` [HCV-796], for which the hepatic toxicity result in the series with HCV (extended dosing of the combination regimens, development suspended) was “hepatic toxicity observed”. Also, the “HCV RNA levels in patients” value with HCV (patients, single agent: transient decrease then rebound, more robust drop with interferon and ribavirin) was “reduce HCV RNA levels in patients”. `CNC(=O)c1c(-c2ccc(F)cc2)oc2ccc3c(c12)CCCCCCCCCCCCO3` [Compound 1013]: a half-maximal response in series [1] (EC50) required 1.51 µM.

For `CNC(=O)c1c(-c2ccc(F)cc2)oc2ccc3c(c12)CCOCCOCCO3` [Compound 1006], in series [1], the EC50 was above 10 µM.
